{
  "source": "patent US7741287B2",
  "about": "“Peptides for the treatment of herpes virus infections” (IPF PharmaCeuticals GmbH, priority 2004, dated 2010)",
  "test_system": "HSV-2",
  "type": "cell-based, herpes simplex virus type 2 (HSV-2)",
  "settings": "ELVIS cell infection assay; virus not given",
  "note": "Where no end group is shown, it is not given here.",
  "data": [
    {"sequence": "VCVLAHHFGKEF [VCVLAHHFGKEF (SEQ ID NO:2)]", "values": [
      {"measurement": "antiviral activity in cellular infection assay", "result": "high activity"}
    ]}
  ]
}
